Measured values from patent publication US20190100534A1, “Cephem Compounds with Latent Reactive Groups” (Gladius Pharmaceuticals, Inc., priority 2017, published 2019).

Tests used:
Format in all cases: cell-based
[1] = test system: Isogenic E. coli J58 strain carrying CTX-M-15; assay: MIC determination, isogenic E. coli strains; settings: Escherichia coli, 18 h, read-out: Mimimum Inhibitory Concentrations, CTX-M-15
In short: (§1)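 Isogenic E. coli J53 carrying plasmid-encoded CTX-M-14 or CTX-M-15 (ampicillin-selected), standardized to 0.08-0.1 OD600, incubated overnight (18 h, 37° C.) in CAMH broth plus 20 μM apo-transferrin over 2-fold compound dilutions starting at 64 μg/mL. Lowest concentration with no visible growth recorded as MIC.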

[2] = test system: Isogenic E. coli J58 strain carrying CTX-M-14; assay: MIC determination, isogenic E. coli strains; settings: Escherichia coli, 18 h, read-out: Mimimum Inhibitory Concentrations, CTX-M-14
In short: as §1

[3] = test system: Isogenic E. coli J58 strain carrying TEM-26; assay: MIC determination, isogenic E. coli strains; settings: Escherichia coli, 18 h, read-out: Mimimum Inhibitory Concentrations, TEM-26
In short: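 Broth microdilution in cation-adjusted Mueller-Hinton broth with 20 μM apo-transferrin, compound […] in twofold steps, inoculum from 0.5 McFarland suspension. E. coli J53 transformed with pBC-SK(+) encoding TEM-26; 18 h at 37° C, MIC as lowest concentration giving a clear well.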

[4] = test system: Pseudomonas aeruginosa PA-RR-(G7305586); assay: MIC determination; settings: Pseudomonas aeruginosa; PA-RR-(G7305586); CAMH broth, 20 μM Apo-Transferrin, 37° C., 18 hours; read-out: Minimum Inhibitory Concentrations, PA-RR-(G7305586)
Experimental: (§2) Sterile technique was used throughout these experiments. Suspensions of organisms were removed from storage (−80° C.) and partially thawed. Partially thawed organisms (1 μL) were inoculated into 3 mL sterile LB Broth in a sterile culture tube and capped, then cultured at 37° C. with shaking for 4-5 hours until the optical density at 600 nm (OD600) was greater than 0.1 on a single beam spectrophotometer.
(§3) The concentration of organisms was adjusted to 0.08-0.1 OD600 (0.5 McFarland units) by dilution with sterile cation-adjusted Meuller-Hinton (CAMH) broth. The suspensions were used within 30 minutes of preparation.
(§4) A stock solution was made of each test compound by measuring 6.4 mg of the compound on an analytical balance and dissolving it in DMSO (1 mL) to get a transparent solution. The solutions were stored at −20° C. and thawed prior to use.
(§5) Sterile CAMH broth (200 μL) containing 20 μM Apo-Transferrin was pipetted into the first row of 8 columns of a sterile, round-bottomed, transparent, 96-well microplate using an 8-channel pipette equipped with sterile tips. One hundred μL was pipetted into the wells of the remaining 11 rows.
(§6) With an 8-channel pipette equipped with sterile tips, 100 μL of the first row solution was transferred to the second row and mixed. The process was repeated for the second to third rows and continued through row 11. One hundred μL from row 11 was removed and discarded so that all 12 rows contained 100 μL. Row 12 contained no compound and rows 1-11 contained 64, 32, 16, 8, 4, 2, 1, 0.5, 0.25, 0.125, […] of a given compound.
(§7) Inoculant suspensions (0.5 μL) were added to the 12 wells of each column. The plates were then covered and incubated at 37° C. overnight for 18 hours.
(§8) For each organism the MIC was determined by identifying the transparent well with the lowest test compound concentration.

[5] = test system: Pseudomonas aeruginosa PA-RR-(980151052); assay: MIC determination; settings: Pseudomonas aeruginosa; PA-RR-(980151052); CAMH broth, 20 μM Apo-Transferrin, 37° C., 18 hours; read-out: Minimum Inhibitory Concentrations, PA-RR-(980151052)
Experimental: as §2, §3, §4, §5, §6, §7, §8

[6] = test system: Pseudomonas aeruginosa PA-RR-(purple Fre D); assay: MIC determination; settings: Pseudomonas aeruginosa, CAMH broth, 20 μM Apo-Transferrin, 37° C., 18 hours, read-out: Minimum Inhibitory Concentrations, PA-RR-(purple Fre D)
Experimental: as §2, §3, §4, §5, §6, §7, §8

[7] = test system: Pseudomonas aeruginosa PA-RR-(G8062859); assay: MIC determination; settings: Pseudomonas aeruginosa; PA-RR-(G8062859); CAMH broth, 20 μM Apo-Transferrin, 37° C., 18 hours; read-out: Minimum Inhibitory Concentrations, PA-RR-(G8062859)
Experimental: as §2, §3, §4, §5, §6, §7, §8

[8] = test system: Pseudomonas aeruginosa PA (RR-2); assay: MIC determination; settings: Pseudomonas aeruginosa; PA (RR-2); CAMH broth, 20 μM Apo-Transferrin, 37° C., 18 hours; read-out: Minimum Inhibitory Concentrations, PA (RR-2)
Experimental: as §2, §3, §4, §5, §6, §7, §8

[9] = test system: Pseudomonas aeruginosa PA (RR-1); assay: MIC determination; settings: Pseudomonas aeruginosa; PA (RR-1); CAMH broth, 20 μM Apo-Transferrin, 37° C., 18 hours; read-out: Minimum Inhibitory Concentrations, PA (RR-1)
Experimental: as §2, §3, §4, §5, §6, §7, §8

[10] = test system: Isogenic E. coli J58 strain carrying KPC-2; assay: MIC determination, isogenic E. coli strains; settings: Escherichia coli, 18 h, read-out: Mimimum Inhibitory Concentrations, KPC-2
In short: (§9)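 Broth microdilution in cation-adjusted Mueller-Hinton broth with 20 μM apo-transferrin, compound at 64 down to […], inoculum set to 0.5 McFarland. E. coli J53 transformed with pBC-SK(+) carrying the synthetic beta-lactamase gene was used. Plates were incubated 18 h at 37 °C; MIC is the lowest concentration giving a clear well.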

[11] = test system: Isogenic E. coli J58 strain carrying KPC-3; assay: MIC determination, isogenic E. coli strains; settings: Escherichia coli, 18 h, read-out: Mimimum Inhibitory Concentrations, KPC-3
In short: as §9

[12] = test system: Isogenic E. coli J58 strain carrying DHA-1; assay: MIC determination, isogenic E. coli strains; settings: Escherichia coli, 18 h, read-out: Mimimum Inhibitory Concentrations, DHA-1
In short: (§10)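 Broth microdilution in cation-adjusted Mueller-Hinton broth with 20 μM apo-transferrin, 2-fold compound series from 64 μg/mL. E. coli J53, alone or transformed with a pBC-SK(+) plasmid carrying the beta-lactamase gene (e.g. DHA-1), inoculated from 0.5 McFarland suspension; 18 h at 37° C; MIC = lowest concentration with clear well.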

E. coli J53 Alone = assay: MIC determination, isogenic E. coli strains; settings: for MIC: Escherichia coli, J53ALONE, 18 h, read-out: Mimimum Inhibitory Concentrations, J53 Alone; for Mimimum Inhibitory Concentrations, J53 Alone: Table 4-2, CAMH broth, 20 μM Apo-Transferrin, 37° C., 18 hours
In short: as §10

[13] = test system: Isogenic E. coli J58 strain carrying NDM-1; assay: MIC determination, isogenic E. coli strains; settings: Escherichia coli, 18 h, read-out: Mimimum Inhibitory Concentrations, NDM-1
In short: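 E. coli J53 transformed with a pBC-SK(+) plasmid encoding NDM-1 was adjusted to 0.08-0.1 OD600. It was grown 18 h at 37° C in CAMH broth containing 20 μM apo-transferrin with twofold compound dilutions from 64 μg/mL. MIC was taken as the lowest concentration giving a transparent well.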

[14] = test system: Isogenic E. coli J58 strain carrying IMP-1; assay: MIC determination, isogenic E. coli strains; settings: for MIC: Escherichia coli, 18 h, read-out: Mimimum Inhibitory Concentrations, IMP-1
In short: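 Broth microdilution in cation-adjusted Mueller-Hinton broth with 20 μM apo-transferrin, compound serially diluted two-fold from 64 μg/mL, against E. coli J53 carrying plasmid-borne IMP-1. Inoculum adjusted to 0.5 McFarland; plates incubated 18 h at 37° C. MIC taken as lowest concentration giving a clear well.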

[15] = test system: Isogenic E. coli J58 strain carrying VIM-2; assay: MIC determination, isogenic E. coli strains; settings: for MIC: Escherichia coli, 18 h, read-out: Mimimum Inhibitory Concentrations, VIM-2
In short: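 E. coli J53 transformed with pBC-SK(+) plasmid carrying synthesized VIM-2 gene, grown in LB to OD600 >0.1, adjusted to 0.08–0.1 OD600 in CAMH broth.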

[16] = test system: Isogenic E. coli J58 strain carrying SHV-1; assay: MIC determination, isogenic E. coli strains; settings: Escherichia coli, 18 h, read-out: Mimimum Inhibitory Concentrations, SHV-1
In short: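 MIC is the lowest compound concentration leaving a transparent well after overnight (18 h) incubation at 37 °C. The test strain was E. coli J53 expressing plasmid-borne SHV-1 beta-lactamase from pBC-SK(+), adjusted to 0.5 McFarland. Compounds were twofold serially diluted, starting at 64 μg/mL, in CAMH broth supplemented with 20 μM apo-transferrin.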

Compound | MIC [1] [µg/mL] | MIC [2] [µg/mL] | MIC [3] [µg/mL] | MIC [4] [µg/mL] | MIC [5] [µg/mL] | MIC [6] [µg/mL] | MIC [7] [µg/mL] | MIC [8] [µg/mL] | MIC [9] [µg/mL] | MIC [10] [µg/mL] | MIC [11] [µg/mL] | MIC [12] [µg/mL] | MIC (E. coli J53 Alone) [µg/mL] | Mimimum Inhibitory Concentrations, J53 Alone (E. coli J53 Alone) [microgram/mL] | MIC [13] [µg/mL] | MIC [14] [µg/mL] | MIC [15] [µg/mL] | MIC [16] [µg/mL] | MICs for an E. coli strain carrying the gene for carbapenemase IMP-1, in words ([14]; review of Tables 4-1 and 4-2) | MICs for an E. coli strain carrying the gene for carbapenemase VIM-1, in words ([15]; review of Tables 4-1 and 4-2)
CC(C)(O/N=C(\C(=O)N[C@@H]1C(=O)N2C(C(=O)O)=C(C=Cc3ccc(C[n+]4ccc(NC(=O)c5ccc(O)c(O)c5)cc4)cc3)CS[C@H]12)c1csc(N)n1)C(=O)O (mixture of isomers) [Compound 427, 1-(4-((E/Z)-2-((6R,7R)-7-((Z)-2-(2-aminothiazol-4-yl)-2-(((2-carboxypropan-2-yl)oxy)imino)acetamido)-2-carboxy-8-oxo-5-thia-1-azabicyclo[4.2.0]oct-2-en-3-yl)vinyl)benzyl)-4-(3,4-dihydroxybenzamido)pyridin-1-ium] | 1 | 1 | 2 | 8 | 0.5 | 0.25 | 0.25 | ≤ 0.06 | 4 | 16 | 4 | 1 | ≤ 0.06 | ≤0.06 | > 64 | 16 | 1 | 1 | – | –
CC(C)(O/N=C(\C(=O)N[C@@H]1C(=O)N2C(C(=O)O)=C(C=Cc3ccc(C[N+]4(C)CCc5ccc(O)c(O)c5C4)cc3)CS[C@H]12)c1csc(N)n1)C(=O)O (mixture of isomers) [Compound 442, 2-(4-((E/Z)-2-((6R,7R)-7-((Z)-2-(2-aminothiazol-4-yl)-2-(((2-carboxypropan-2-yl)oxy)imino)acetamido)-2-carboxy-8-oxo-5-thia-1-azabicyclo[4.2.0]oct-2-en-3 yl)vinyl)benzyl)-7,8-dihydroxy-2-methyl-1,2,3,4-tetrahydroisoquinolin-2-ium] | – | – | 0.5 | 2 | 2 | 1 | 0.25 | ≤ 0.06 | 0.5 | 2 | 1 | – | 0.25 | 0.25 | > 64 | – | – | 0.5 | low microgram/mL MICs | –
CC(C)(O/N=C(\C(=O)N[C@@H]1C(=O)N2C(C(=O)O)=C(C=Cc3ccc(C[N+]4(C)CCc5cc(O)c(O)cc5C4)cc3)CS[C@H]12)c1csc(N)n1)C(=O)O (mixture of isomers) [Compound 407, 2-(4-((E/Z)-2-((6R,7R)-7-((Z)-2-(2-aminothiazol-4-yl)-2-(((2-carboxypropan-2-yl)oxy)imino)acetamido)-2-carboxy-8-oxo-5-thia-1-azabicyclo[4.2.0]oct-2-en-3 yl)vinyl)benzyl)-6,7-dihydroxy-2-methyl-1,2,3,4-tetrahydroisoquinolin-2-ium] | 64 | 1 | 1 | 0.03 | 0.06 | 0.06 | 0.06 | 2 | 4 | 8 | 4 | – | 0.13 | 0.13 | > 64 | 32 | 0.5 | 0.5 | – | –
CC(C)(O/N=C(\C(=O)N[C@@H]1C(=O)N2C(C(=O)O)=C(C=Cc3ccc(C[N+]4(C)CCc5c(Cl)c(O)c(O)c(Cl)c5C4)cc3)CS[C@H]12)c1csc(N)n1)C(=O)O (mixture of isomers) [Compound 429, 2-(4-((E/Z)-2-((6R,7R)-7-((Z)-2-(2-aminothiazol-4-yl)-2-(((2-carboxypropan-2-yl)oxy)imino)acetamido)-2-carboxy-8-oxo-5-thia-1-azabicyclo[4.2.0]oct-2-en-3-yl)vinyl)benzyl)-5,8 dichloro-6,7-dihydroxy-2-methyl-1,2,3,4-tetrahydroisoquinolin-2-ium] | – | – | – | 1 | 0.5 | 2 | 0.5 | ≤ 0.06 | 0.25 | 4 | 1 | 0.25 | ≤ 0.06 | ≤0.06 | > 64 | ≤ 0.06 | ≤ 0.06 | 0.25 | – | low microgram/mL MICs
